How the values were obtained:
CK1δ = CK1δ (Homo sapiens (Human), UniProt P48730); test: CK1δ kinase assay (Caliper LABCHIP electrophoretic separation of fluoresceinated peptide substrate and product); assay type: biochemical; conditions: 200 pM enzyme, 50 μM ATP, 22 hours at room temperature
Procedure, shortened: (§1)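 IC50 values were obtained by non-linear regression from eleven-concentration titrations. The kinase reactions were incubated for 22 hours at room temperature before termination with 35 mM EDTA.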

CK1ε = CK1ε (Homo sapiens (Human), UniProt P49674); test: CK1ε kinase assay (Caliper LABCHIP electrophoretic separation of fluoresceinated peptide substrate and product); assay type: biochemical; conditions: 200 pM enzyme, 50 μM ATP, 22 hours at room temperature
Chain of CK1ε (P49674 whole entry): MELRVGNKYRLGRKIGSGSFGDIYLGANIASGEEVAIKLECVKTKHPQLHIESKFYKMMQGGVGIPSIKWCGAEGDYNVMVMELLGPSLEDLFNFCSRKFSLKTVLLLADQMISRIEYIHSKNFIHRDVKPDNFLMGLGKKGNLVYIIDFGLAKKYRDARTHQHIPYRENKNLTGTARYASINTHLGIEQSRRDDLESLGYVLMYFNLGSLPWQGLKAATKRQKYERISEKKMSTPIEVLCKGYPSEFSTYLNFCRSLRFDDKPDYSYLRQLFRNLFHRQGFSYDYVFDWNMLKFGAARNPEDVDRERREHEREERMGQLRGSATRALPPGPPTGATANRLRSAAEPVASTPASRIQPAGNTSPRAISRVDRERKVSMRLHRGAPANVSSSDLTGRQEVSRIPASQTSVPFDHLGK
Procedure, shortened: as §1

Chain of CK1δ (P48730 whole entry): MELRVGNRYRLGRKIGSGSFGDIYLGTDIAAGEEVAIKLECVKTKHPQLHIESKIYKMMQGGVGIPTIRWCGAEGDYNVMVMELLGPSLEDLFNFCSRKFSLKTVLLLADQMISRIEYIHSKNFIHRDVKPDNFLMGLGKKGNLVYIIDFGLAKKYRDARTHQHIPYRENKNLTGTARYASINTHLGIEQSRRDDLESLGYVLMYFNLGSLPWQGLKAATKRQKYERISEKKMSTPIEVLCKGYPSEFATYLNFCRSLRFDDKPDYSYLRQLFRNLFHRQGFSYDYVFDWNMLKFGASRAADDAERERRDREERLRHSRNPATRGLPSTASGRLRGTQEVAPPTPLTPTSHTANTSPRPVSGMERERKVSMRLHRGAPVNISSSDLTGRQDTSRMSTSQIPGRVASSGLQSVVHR

IC50 (CK1δ) [nM] | IC50 (CK1ε) [nM] | Structure (SMILES)
1.59 | 17 | O=C(Nc1cn2nc(-c3c(-c4ccc(F)cc4)nc4ccccn34)ccc2n1)c1ccon1 [Compound 208, N-(6-(2-(4-fluorophenyl)imidazo[1,2-a]pyridin-3-yl)imidazo[1,2-b]pyridazin-2-yl)isoxazole-3-carboxamide]
1.83 | 29.5 | Cc1nocc1C(=O)Nc1cn2nc(-c3c(-c4ccc(F)cc4)nc4ccccn34)ccc2n1 [Compound 209, N-(6-(2-(4-fluorophenyl)imidazo[1,2-a]pyridin-3-yl)imidazo[1,2-b]pyridazin-2-yl)-3-methylisoxazole-4-carboxamide]
17.6 | 75.1 | Cc1onc(-c2ccccc2)c1C(=O)Nc1cn2nc(-c3c(-c4ccc(F)cc4)nc4ccccn34)ccc2n1 [Compound 210, N-(6-(2-(4-fluorophenyl)imidazo[1,2-a]pyridin-3-yl)imidazo[1,2-b]pyridazin-2-yl)-5-methyl-3-phenylisoxazole-4-carboxamide]
1.96 | 6.77 | O=C(Nc1cn2nc(-c3c(-c4ccc(F)cc4)nc4ccccn34)ccc2n1)c1cccc(-c2nccs2)c1 [Compound 211, N-(6-(2-(4-fluorophenyl)imidazo[1,2-a]pyridin-3-yl)imidazo[1,2-b]pyridazin-2-yl)-3-(thiazol-2-yl)benzamide]
60.7 | 178 | Cc1nc(-c2cccnc2)sc1C(=O)Nc1cn2nc(-c3c(-c4ccc(F)cc4)nc4ccccn34)ccc2n1 [Compound 218, N-(6-(2-(4-fluorophenyl)imidazo[1,2-a]pyridin-3-yl)imidazo[1,2-b]pyridazin-2-yl)-4-methyl-2-(pyridin-3-yl) thiazole-5-carboxamide]
4.06 | 42.2 | O=C(CN1CCOCC1)Nc1cn2nc(-c3c(-c4ccc(F)cc4)nc4ccccn34)ccc2n1 [Compound 221, N-(6-(2-(4-fluorophenyl)imidazo[1,2-a]pyridin-3-yl)imidazo[1,2-b]pyridazin-2-yl)-2-morpholinoacetamide]
2.82 | 10.4 | CNc1ccc2nc(-c3ccc(F)cc3)c(-c3ccc4nc(NC(=O)c5ccncc5)cn4n3)n2n1 [Compound 225, N-(2-(4-fluorophenyl)-6-(methyl-amino)-[3,6′-biimidazo[1,2-b]pyridazin]-2′-yl)isonicotinamide]

More lines, now with the values behind:

Structure (SMILES) | IC50 (CK1δ) [nM] | IC50 (CK1ε) [nM]
N#Cc1cccc(-c2cccc(C(=O)Nc3cn4nc(-c5c(-c6ccc(F)cc6)nc6ccccn56)ccc4n3)c2)c1 [Compound 207, 3′-cyano-N-(6-(2-(4-fluorophenyl)imidazo[1,2-a]pyridin-3-yl]imidazo[1,2-b]pyridazin-2-yl)-[1,1′-biphenyl]-3-carboxamide] | 2.35 | 18.1
O=C(Nc1cn2nc(-c3c(-c4ccc(F)cc4)nc4ccccn34)ccc2n1)c1cncc(-c2cccs2)c1 [Compound 212, N-(6-(2-(4-fluorophenyl)imidazo[1,2-a]pyridin-3-yl)imidazo[1,2-b]pyridazin-2-yl)-5-(thiophen-2-yl) nicotinamide] | 0.64 | 5.98
O=C(Nc1cn2nc(-c3c(-c4ccc(F)cc4)nc4ccccn34)ccc2n1)c1ccnc2[nH]cnc12 [Compound 213, N-(6-(2-(4-fluorophenyl)imidazo[1,2-a]pyridin-3-yl)imidazo[1,2-b]pyridazin-2-yl)-3H-imidazo[4,5-b] pyridine-7-carboxamide] | 1.61 | 17.2
O=C(Cn1ccnc1)Nc1cn2nc(-c3c(-c4ccc(F)cc4)nc4ccccn34)ccc2n1 [Compound 214, N-(6-(2-(4-fluorophenyl)imidazo[1,2-a]pyridin-3-yl)imidazo[1,2-b]pyridazin-2-yl)-2-(1H-imidazol-1-yl) acetamide] | 2.19 | 22.3
Cc1cc(C)n(CCC(=O)Nc2cn3nc(-c4c(-c5ccc(F)cc5)nc5ccccn45)ccc3n2)n1 [Compound 215, 3-(3,5-dimethyl-1H-pyrazol-1-yl)-N-(6-(2-(4-fluorophenyl)imidazo[1,2-a]pyridin-3-yl)imidazo[1,2-b]pyridazin-2-yl)propanamide] | 1.67 | 17.1
CN1CCC(C(=O)Nc2cn3nc(-c4c(-c5ccc(F)cc5)nc5ccccn45)ccc3n2)CC1 [Compound 216, N-(6-(2-(4-fluorophenyl)imidazo[1,2-a]pyridin-3-yl)imidazo[1,2-b]pyridazin-2-yl)-1-methylpiperidine-4-carboxamide] | 2.95 | 26.7
O=C(Nc1cn2nc(-c3c(-c4ccc(F)cc4)nc4ccccn34)ccc2n1)C1CCN(c2ccncc2)CC1 [Compound 217, N-(6-(2-(4-fluorophenyl)imidazo[1,2-a]pyridin-3-yl)imidazo[1,2-b]pyridazin-2-yl)-1-(pyridin-4-yl)piperidine-4-carboxamide] | 0.833 | 12.2
Cc1nc(-c2ccncc2)sc1C(=O)Nc1cn2nc(-c3c(-c4ccc(F)cc4)nc4ccccn34)ccc2n1 [Compound 219, N-(6-(2-(4-fluorophenyl)imidazo[1,2-a]pyridin-3-yl)imidazo[1,2-b]pyridazin-2-yl)-4-methyl-2-(pyridin-4-yl) thiazole-5-carboxamide] | 1.15 | 1.22
O=C(Nc1cn2nc(-c3c(-c4ccc(F)cc4)nc4ccccn34)ccc2n1)C1CCOCC1 [Compound 220, N-(6-(2-(4-fluorophenyl)imidazo[1,2-a]pyridin-3-yl)imidazo[1,2-b]pyridazin-2-yl)tetrahydro-2H-pyran-4-carboxamide] | 0.734 | 11.4
O=C(Nc1cn2nc(-c3c(-c4ccc(F)cc4)nc4ccc(N5CCCC5)nn34)ccc2n1)c1ccncc1 [Compound 222, N-(2-(4-fluorophenyl)-6-(pyrrolidin-1-yl)-[3,6′-biimidazo[1,2-b]pyridazin]-2′-yl)isonicotinamide] | 30.7 | 43.6
CN1CCN(c2ccc3nc(-c4ccc(F)cc4)c(-c4ccc5nc(NC(=O)c6ccncc6)cn5n4)n3n2)CC1 [Compound 223, N-(2-(4-fluorophenyl)-6-(4-methylpiperazin-1-yl)-[3,6′-biimidazo[1,2-b]pyridazin]-2′-yl)isonicotinamide] | 6.85 | 10.1
Nc1ccc2nc(-c3ccc(F)cc3)c(-c3ccc4nc(NC(=O)c5ccncc5)cn4n3)n2n1 [Compound 224, N-(6-amino-2-(4-fluorophenyl)-[3,6′-biimidazo[1,2-b]pyridazin]-2′-yl)isonicotinamide] | 0.694 | 2.81
O=C(Nc1cn2nc(-c3c(-c4ccc(F)cc4)nc4ccc(N5CCOCC5)nn34)ccc2n1)c1ccncc1 [Compound 226, N-(2-(4-fluorophenyl)-6-morpholino-[3,6′-biimidazo[1,2-b]pyridazin]-2′-yl)isonicotinamide] | 4.94 | 10.1
O=C(Nc1cn2nc(-c3c(-c4ccc(F)cc4)nc4ccc(NC5CCC5)nn34)ccc2n1)c1ccncc1 [Compound 227] | 12.5 | 36.9
Cc1nc(-c2ccc(F)cc2)c(-c2ccc3nc(NC(=O)c4ccncc4)cn3n2)[nH]1 [Compound 228, N-(6-(4-(4-fluorophenyl)-2-methyl-1H-imidazol-5-yl)imidazo[1,2-b]pyridazin-2-yl)isonicotinamide] | 2.07 | 1.82

Reference: patent US9556179B2 (BRISTOL-MYERS SQUIBB COMPANY, priority 2012, dated 2017)
